Source: patent EP0184322A1, “Benzimidazoles” (SMITH KLINE & FRENCH LABORATORIES LIMITED, priority 1984, dated 1986)

Tested on: histamine stimulated gastric acid secretion
Assay: Rat lumen perfused stomach (modified Ghosh and Schild procedure)
Type: in vivo
Source text: Using a modification of the procedure described by Ghosh and Schild (Br. J. Pharmacology, 13, 54, 1958), ED . values after either intraduodenal (i.d) or intravenous (i.v) administration were obtained as follows: […]

[1] = i.d. (intraduodenal) administration

Row | Compound | ED50 (iv, i.v. administration) | ED50 [1]
1 | COc1ccc2[nH]c([S+]([O-])Cc3cc(N)c(Br)cn3)nc2c1 (stereo not drawn) [Example 2, 2-(4-amino-5-bromo-2-pyridylmethylsulphinyl)-5-methoxy-(1-H)-benzimidazole] | 1.46 µmol/kg | 
2 | COc1ccc2[nH]c([S+]([O-])Cc3nccc(N4CCOCC4)c3Cl)nc2c1 (stereo not drawn) [Example 4, 2-(4-morpholino-3-chloro-2-pyridylmethyl-sulphinyl)-5-methoxy-(1 H)-benzimidazole] | 1.17 µmol/kg | 
3 | COc1ccc2[nH]c([S+]([O-])Cc3ncc(C)c(N4CCOCC4)c3Cl)nc2c1 (stereo not drawn) [Example 6, 2-(4-morpholino-3-chloro-5-methyl-2-pyridylmethylsulphinyl)--5-methoxy-(1H)-benzimidazole] |  | 1.94 µmol/kg
4 | COc1ccc2[nH]c([S+]([O-])Cc3ncc(C)c(N4CCCCC4)c3Cl)nc2c1 (stereo not drawn) [Example 8, 2-(4-piperidino-3-chloro-5-methyl-2-pyridylmethylsulphinyl)--5-methoxy-(1H)-benzimidazole] |  | 2.38 µmol/kg
5 | COc1ccc2[nH]c([S+]([O-])Cc3ncc(C)c(N4CCCC4)c3Cl)nc2c1 (stereo not drawn) [Example 14, 2-(4-pyrrolidino-3-chloro-5-methyl-2-pyridylmethylsulphinyl)-5-methoxy-(1 H)-benzimidazole] | 0.82 µmol/kg | 
6 | COc1ccc2[nH]c([S+]([O-])Cc3ncc(C)c(N(C)C)c3Cl)nc2c1 (stereo not drawn) [Example 16, 2-(4-dimethylamino-3-chloro-5-methyl-2-pyridylmethylsulphi-nyl)-5-methoxy-(1H)-benzimidazole] |  | 1.46 µmol/kg
7 | COc1ccc2[nH]c([S+]([O-])Cc3cc(N4CCCCC4)c(Br)cn3)nc2c1 (stereo not drawn) [Example 18, 2-(4-piperidino-5-bromo-2-pyridylmethylsulphinyl) - 5-methoxy-(1 H)-benzimidazole] | 0.85 µmol/kg | 
8 | COc1ccc2[nH]c([S+]([O-])Cc3nccc(N4CCCCC4)c3Br)nc2c1 (stereo not drawn) [Example 20, 2-(4-piperidino-3-bromo-2-pyridylmethylsulphinyl) - 5-methoxy-(1H)-benzimidazole] | 0.86 µmol/kg | 
9 | COc1ccc2[nH]c([S+]([O-])Cc3ncc(Br)c(N4CCCCC4)c3C)nc2c1 (stereo not drawn) [Example 22, 2-(4-piperidino-5-bromo-3-methyl-2-pyridylmethylsulphinyl)--5-methoxy-(1 H)-benzimidazole] |  | 4.55 µmol/kg
